Assay results from patent US4857540A, “Dopamine-β-hydroxylase inhibitors” (SmithKline Beckman Corporation, priority 1987, dated 1989).
Structures can show the parent of a compound that is named as a salt. Where two headings read alike, the source gives them in different places. Values belong to the molecule of their own block, whether it stands above or below them.

Tests used:
[1] = molecular target: T1, dopamine-β-hydroxylase (DBH) (Bos taurus, UniProt P15101); test: in vitro DBH inhibition, conversion of tyramine to octopamine (absorbance at 330 nm); assay type: biochemical
T1 sequence (P15101 1-610): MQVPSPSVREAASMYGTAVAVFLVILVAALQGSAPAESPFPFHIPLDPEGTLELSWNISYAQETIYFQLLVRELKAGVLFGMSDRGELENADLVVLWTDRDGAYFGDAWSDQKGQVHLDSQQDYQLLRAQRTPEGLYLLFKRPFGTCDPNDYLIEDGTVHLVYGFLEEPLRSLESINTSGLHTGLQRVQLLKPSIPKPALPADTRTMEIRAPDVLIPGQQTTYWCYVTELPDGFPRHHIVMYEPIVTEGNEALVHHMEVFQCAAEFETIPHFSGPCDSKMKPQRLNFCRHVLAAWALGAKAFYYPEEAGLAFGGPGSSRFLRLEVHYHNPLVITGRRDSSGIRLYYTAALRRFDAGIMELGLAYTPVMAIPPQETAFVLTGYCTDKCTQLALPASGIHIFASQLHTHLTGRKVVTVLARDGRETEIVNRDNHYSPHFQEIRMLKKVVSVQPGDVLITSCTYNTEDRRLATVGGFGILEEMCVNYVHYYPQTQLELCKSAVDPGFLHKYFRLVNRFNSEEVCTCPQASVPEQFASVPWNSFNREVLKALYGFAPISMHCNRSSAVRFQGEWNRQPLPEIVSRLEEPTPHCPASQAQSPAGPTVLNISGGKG
Experimental: Compounds of the invention and other compounds useful in the method of the invention were screened for in vitro DBH inhibition by a standard procedure for assaying conversion of tyramine to octopamine in the presence of DBH. Octopamine was assayed following sodium periodate oxidation to p-hydroxybenzaldehyde by measuring spectrophotometric absorbance at 330 nm. Inhibition is given in molar concentration of compound at which DBH activity was halved (IC50). Melting points (mp) are given in °C.

[2] = Teresawa et al., Japan, Cir. J. 35, 339 (1971); cited from earlier work
[3] = tested on: peripheral dopamine (DA) and norepinephrine (NE) levels; test: effects in vivo on peripheral dopamine (DA) and norepinephrine (NE) levels; parameters: species or system Spontaneously hypertensive rats; conditions: dosed twice about 18 hours apart, sacrificed about 2 hours after second dose, mean of 5 animals; for DA / NE: per gram of tissue
Experimental: Various compounds of the invention were tested for their effects in vivo on peripheral dopamine (DA) and norepinephrine (NE) levels substantially by the procedure of DaPrada and Zurcher, Life Sci., 19, 1161, (1976). Spontaneously hypertensive rats were dosed twice, the second dose being abut 18 hours after the first, and were sacrificed about 2 hours after the second dose.

[4] = mean arterial blood pressure, indwelling cannulae in tail artery; assay type: in vivo, Spontaneously hypertensive rats; conditions: 50 mg/kg i.p.
Experimental: Further, the same rats were dosed with a suspension or solution at a dose of 50 mg/kg of test compound i.p. and mean arterial blood pressure determined with indwelling cannulae inserted into the tail artery.

[5] = molecular target: T1, dopamine-β-hydroxylase (DBH); test: in vitro DBH inhibition, conversion of tyramine to octopamine (absorbance at 330 nm); assay type: biochemical; conditions: read-out: DBH inhibition, % at 10^-4 M
[6] = in vitro, tyramine to octopamine, read-out: IC50 value (molar concentration of compound at which DBH activity was halved)

SMILES: Oc1c(F)cc(Cn2c(S)nc3ccccc32)cc1F [Example 9, 1-(3,5-difluoro-4-hydroxybenzyl)-2-mercaptobenzimidazole]
IC50 [1, 6]: 0.66 µM

SMILES: CCCCc1ccc(C(=O)O)nc1 [fusaric acid, reference compound]
IC50 [1]: ~0.8 µM
hepatotoxicity [2]: hepatotoxic

SMILES: Fc1cc(F)cc(Cn2c(S)nc3ccccc32)c1 [Example 6, 1-(3,5-difluorobenzyl)-2-mercaptobenzimidazole]
DA/NE Ratio [3]: 0.086
DA [3]: 0.607 µg/g
NE [3]: 7.054 µg/g
IC50 [1, 6]: 6.2 µM
mean arterial pressure [4]: significant reduction in mean arterial pressure

SMILES: Oc1c(Cl)cc(Cn2c(S)nc3ccccc32)cc1Cl [Example 8, 1-(3,5-dichloro-4-hydroxybenzyl)-2-mercaptobenzimidazole]
IC50 [1, 6]: 3.8 µM

SMILES: Sc1nc2ccccc2n1Cc1cc(Cl)cc(Cl)c1 [Example 4, 1-(3,5-dichlorobenzyl)-2-mercaptobenzimidazole]
inhibition at 100 µM [5]: 70%

SMILES: COc1c(F)cc(Cn2c(S)nc3ccccc32)cc1F [Example 3, 1-(3,5-difluoro-4-methoxybenzyl)-2-mercaptobenzimidazole]
DA/NE Ratio [3]: 0.055
DA [3]: 0.397 µg/g
NE [3]: 7.82 µg/g

Now from value to molecule:

IC50 [1, 6]: 113 µM
SMILES: NCc1nc2ccccc2n1Cc1cccc(Cl)c1 [Example 40, 1-[3-chlorobenzyl]-2-aminomethylbenzimidazole dihydrochloride]

IC50 [1, 6]: 61 µM
SMILES: Sc1nc2ccccc2n1Cc1ccccc1 [Example 5, N-benzyl-2-mercaptobenzimidazole]

IC50 [1, 6]: 130 µM
SMILES: NCc1nc2ccccc2n1Cc1cccc(F)c1 [Example 39, 1-[3-fluorobenzyl]-2-aminomethylbenzimidazole dihydrofluoride]

inhibition at 100 µM [5]: 60%
SMILES: Sc1nc2ccccc2n1Cc1c(Cl)cccc1Cl [Example 2, 1-(2,6-dichlorobenzyl)-2-mercaptobenzimidazole]

IC50 [1, 6]: 69 µM
SMILES: NCc1nc2ccccc2n1Cc1ccc(Cl)c(Cl)c1 [Example 38, 1-[3,4-Dichlorobenzyl]-2-aminomethylbenzimidazole dihydrochloride]

inhibition at 100 µM [5]: 6%
SMILES: COc1ccc(Cn2c(S)nc3ccccc32)cc1 [Example 7, 1-(4-methoxybenzyl)-2-mercaptobenzimidazole]

IC50 [1, 6]: 13 µM
SMILES: Oc1ccc(Cn2c(S)nc3ccccc32)cc1 [Example 10, 1-(4-hydroxybenzyl)-2-mercaptobenzimidazole]

IC50 [1, 6]: 0.12 µM
SMILES: NCc1nc2ccccc2n1Cc1ccccc1 [Example 37, 1-Benzyl-2-aminomethylbenzimidazole hydrochloride]
